# Measured values from patent publication US5843449A, “Proteins and novel peptides derived from autoantigen for use in immunotherapy of autoimmune diseases” (Akzo Nobel N.V., priority 1996, dated 1998).
# Read-outs that look alike come from different tables or passages of the source. Residues, ends and D or L forms follow the SMILES beside them.
# Assays:
# [1] = molecular target: T1, DR4Dw4 (DRB1*0401) HLA-DR molecules (Homo sapiens, UniProt P01903+P01911, A100K/A169T/F76Y/I96L/K127E/L162R/M171V/N62H/P40V/Q125Y/R42H/S133A/S149N/S66Y/V115G/V209L/W38E); assay: HLA-DR peptide binding assay (competition with biotinylated marker peptide), DR4Dw4; conditions: pH = 5, 50 nM biotin-spacer-IHA(307-319)F marker peptide
# T1 construct: endogenous in cells; host or cells: BSM, EBV-transformed B-cell line
# DR4Dw14 HLA-DR molecules = assay: HLA-DR peptide binding assay (competition with biotinylated marker peptide), DR4Dw14; set-up: species or system human; conditions: pH = 5, 50 nM biotin-spacer-IHA(307-319)F marker peptide
smiles,measurement,setting,value
"CC(C)C[C@H](NC(=O)[C@H](CCCCN)NC(=O)[C@H](CC(C)C)NC(=O)[C@@H](NC(=O)[C@H](CC(N)=O)NC(=O)[C@H](CCC(N)=O)NC(=O)[C@H](CCCCN)NC(=O)[C@@H](NC(=O)[C@H](Cc1ccccc1)NC(=O)[C@H](CCCCN)NC(=O)[C@@H]1CCCN1)C(C)C)[C@@H](C)O)C(=O)N[C@@H](C)C(=O)N[C@H](C(=O)O)[C@@H](C)O [IHA(307-319)F, reference compound] (H-PKFVKQNTLKLAT-OH)",IC50,"[1]; DOT Blot, densitometer, read-out: ^R IC50, DR4Dw4, DOT Blot",550 nM
same,IC50,"[1]; SDS-PAGE, visual inspection, read-out: ^R IC50, DR4Dw4, SDS-PAGE",300 nM
same,IC50,"DR4Dw14 HLA-DR molecules; DOT Blot, densitometer, read-out: ^R IC50, DR4Dw14, DOT Blot",530 nM
same,IC50,"DR4Dw14 HLA-DR molecules; SDS-PAGE, visual inspection, read-out: ^R IC50, DR4Dw14, SDS-PAGE",300 nM
